Molecules are shown by their SMILES.

The record followed here is US20240336604A1 (THE UNITED STATES OF AMERICA, AS REPRESENTED BY THE …, priority 2021, published 2024).

Common to all, as to assay type: cell-based
The target in one test is D2 DAR (Homo sapiens, UniProt P14416). Description: DiscoverX D2 DAR β-arrestin recruitment assay. Further details: host or cells: CHO. The note with it: EC80 concentration of DA (1 μM). The text has this: For a secondary-screen and selectivity assays, DAR PathHunter®-arrestin GPCR cell lines from DiscoverX (Fremont, CA) were used. In the D2 DAR PathHunter®-arrestin GPCR cell line, the D2 DAR is overexpressed and fused with a small 42-amino acid fragment of β-galactosidase called ProLink™ on a CHO cellular background expressing a fusion protein of β-arrestin and a larger N-terminal deletion mutant of β-galactosidase (“enzyme acceptor”). When the D2 DAR is activated by dopamine, it stimulates binding of β-arrestin to the ProLink-tagged DAR and the two complementary parts of β-galactosidase form a functional enzyme. When substrate (PathHunter™ Detection reagent) is added, β-galactosidase hydrolyzes it and generates a chemiluminescent signal.
D2 DAR, sequence (P14416 whole entry, the tested form may be a part): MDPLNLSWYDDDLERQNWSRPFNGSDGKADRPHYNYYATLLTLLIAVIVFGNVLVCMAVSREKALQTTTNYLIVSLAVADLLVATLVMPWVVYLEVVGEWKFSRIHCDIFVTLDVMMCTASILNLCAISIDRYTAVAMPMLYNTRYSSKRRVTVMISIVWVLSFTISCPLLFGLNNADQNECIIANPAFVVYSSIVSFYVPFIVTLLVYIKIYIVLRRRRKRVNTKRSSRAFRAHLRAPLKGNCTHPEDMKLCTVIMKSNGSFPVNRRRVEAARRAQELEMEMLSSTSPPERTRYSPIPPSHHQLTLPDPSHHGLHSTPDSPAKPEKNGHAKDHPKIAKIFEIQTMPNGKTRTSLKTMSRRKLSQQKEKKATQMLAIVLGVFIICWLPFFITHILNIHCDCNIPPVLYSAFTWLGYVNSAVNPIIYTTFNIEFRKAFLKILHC
(In general: Arrestin recruitment assays detect the binding of arrestin to an activated receptor.)

Test [1] concerns the target T1, D3 DAR (Homo sapiens, UniProt P35462). Description: Go BRET activation assay, D3 DAR. The following applies: EC80 DA (30 nM); for Emax: 5 min, read-out: D3 Go BRET Imax. As to the method: Briefly, HEK293T cells transiently expressing either the D2 DAR or D3 DAR and GαoA-Rluc8, untagged-β1, and mVenus-γ2 were harvested with EBSS, plated in 96-well white plates at 20,000 cells/well in DPBS and incubated at RT for 45 min. […] BRET signal was determined by quantifying and calculating the ratio of the light emitted by mVenus (525 nm) over that emitted by RLuc8 (485 nm) using a PHERAstar FSX Microplate Reader (BMG Labtech).
Background: In BRET a luciferase serves as donor, and the signal depends on an acceptor being close.

In test [2] the target is T1, D3 DAR. Put plainly: DiscoverX D3 DAR β-arrestin recruitment assay. Details: host or cells: CHO. The note with it: for IC50: EC80 concentration of DA (30 nM), read-out: D3 DAR IC50; for D3 DAR Imax / Emax: Imax=maximum inhibition, EC80 DA (30 nM). An excerpt: A D3 DAR β-arrestin cell line from DiscoverX (Fremont, CA) was used as described in the protocol below (Table 2). A CHO cell line engineered to overexpress the D3 DAR fused with a small 42-amino acid fragment of β-galactosidase called ProLink™ and a fusion protein consisting of β-arrestin and a larger N-terminal deletion mutant of β-galactosidase was used (DiscoverX catalogue number 93-0579C2). When the D3 DAR is activated by dopamine, it stimulates binding of β-arrestin to ProLink-tagged D3 DARs, and the two complementary parts of β-galactosidase form a functional enzyme. When substrate (PathHunter® Detection reagent, DiscoverX 93-0001) is added, β-galactosidase hydrolyzes it and generates a chemiluminescent signal.

T1 sequence (P35462 whole entry): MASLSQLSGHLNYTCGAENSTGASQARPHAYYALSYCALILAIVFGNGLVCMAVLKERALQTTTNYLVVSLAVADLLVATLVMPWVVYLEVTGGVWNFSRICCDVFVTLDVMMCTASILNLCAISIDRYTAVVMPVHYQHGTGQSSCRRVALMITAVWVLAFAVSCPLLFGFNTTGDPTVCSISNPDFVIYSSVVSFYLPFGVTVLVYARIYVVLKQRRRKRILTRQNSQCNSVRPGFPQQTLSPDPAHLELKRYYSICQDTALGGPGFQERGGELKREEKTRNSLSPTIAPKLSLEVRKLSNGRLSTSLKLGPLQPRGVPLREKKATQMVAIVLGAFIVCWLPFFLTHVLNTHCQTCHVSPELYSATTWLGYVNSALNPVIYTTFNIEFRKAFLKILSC

As for `Cc1[nH]c(C)c(S(=O)(=O)Nc2ccc(C(F)(F)F)c(Cl)c2)c1C(=O)N1CCNCC1.Cl` [compound 20, N-(3-chloro-4-(trifluoromethyl)phenyl)-2,5-dimethyl-4-(piperazine-1-carbonyl)-1H-pyrrole-3-sulfonamide], at D2 DAR, the “D2 DAR Imax” value was “NA (“NA” indicates not active)” and the half-inhibitory concentration (IC50) (usually the point on the concentration scale where inhibition reaches its midpoint) was greater than 100 µM. On D3 DAR [1], this molecule showed a half-inhibitory concentration (IC50) greater than 50 µM. At D3 DAR [2], the IC50 is 50 to 100 µM and the “D3 DAR Imax” value is given as “Curve Incomplete”.

For the molecule `Cc1ccc(NS(=O)(=O)c2c(C)[nH]c(C(F)(F)F)c2C(=O)N2CCCC2)cc1Cl` [compound 38], the “D2 DAR Imax” value on D2 DAR is on record as “NA (“NA” indicates not active)”. The results for the concentration for half-maximal inhibition (IC50) against D2 DAR, at D3 DAR [1] and on D3 DAR [2] were greater than 100 µM, 1 to 10 µM and less than 10 µM, respectively. Besides, the Emax on D3 DAR [1] was greater than 100%; on D3 DAR [2] it was 80 to 100%.

In the case of `Cc1ccc(NS(=O)(=O)c2c(C)[nH]c(C)c2C(=O)N2CCCC2)cc1F` [compound 16], on D2 DAR, the “D2 DAR Imax” value was “NA (“NA” indicates not active)” and the IC50 is greater than 100 µM. Moreover, at D3 DAR [1], the Emax is greater than 100% and the half-maximal inhibitory concentration (IC50) lay in the range of 10 to 50 µM. At D3 DAR [2], the IC50 was 10 to 50 µM and the Emax fell in the range of 80 to 100%.

`Cc1ccc(NS(=O)(=O)c2c(C)[nH]c(C)c2C(=O)N2CCCCC2)cc1Cl` [compound 11]: on D2 DAR, the “D2 DAR Imax” value is “NA (“NA” indicates not active)”. Moreover, the values for the concentration for half-maximal inhibition (IC50) against D2 DAR, against D3 DAR [1] and on D3 DAR [2] were greater than 100 µM, 10 to 50 µM and 10 to 50 µM, respectively. Moreover, the Emax at D3 DAR [1] is greater than 100%; on D3 DAR [2], 80 to 100%.

Consider `Cc1[nH]c(C)c(S(=O)(=O)Nc2ccc(Cl)cc2C(F)(F)F)c1C(=O)N1CCC(F)(F)C1` [compound 42], for which, on D2 DAR, the “D2 DAR Imax” value is on record as “NA (“NA” indicates not active)” and the IC50 was greater than 100 µM. Besides, at D3 DAR [1], the Emax is greater than 100% and the concentration for half-maximal inhibition (IC50) lay within 10 to 50 µM. On D3 DAR [2], the half-maximal inhibitory concentration (IC50) lay in the range of 10 to 50 µM and the Emax is 80 to 100%.

On to `Cc1ccc(NS(=O)(=O)c2c(C)[nH]c(C)c2C(=O)N2CCCC2C)cc1Cl` (centres unmarked) [compound 3], for which, on D2 DAR, the “D2 DAR Imax” value is “NA (“NA” indicates not active)” and the IC50 is greater than 100 µM. In addition, on D3 DAR [1], the Emax is greater than 100% and the concentration for half-maximal inhibition (IC50) fell in the range of 1 to 10 µM. Besides, on D3 DAR [2], the half-maximal inhibitory concentration (IC50) lay in the range of 10 to 50 µM and the Emax lay in the range of 80 to 100%.

For the molecule `Cc1[nH]c(C)c(S(=O)(=O)Nc2ccc(C(F)(F)F)c(Cl)c2)c1C(=O)N1CCN(C(=O)OC(C)(C)C)CC1` [compound 19, tert-butyl 4-(4-(N-(3-chloro-4-(trifluoromethyl)phenyl)sulfamoyl)-2,5-dimethyl-1H-pyrrole-3-carbonyl)piperazine-1-carboxylate], the “D2 DAR Imax” value at D2 DAR is given as “NA (“NA” indicates not active)”. The results for the IC50 against D2 DAR, on D3 DAR [1] and on D3 DAR [2] were greater than 100 µM, 10 to 50 µM and 50 to 100 µM, respectively. The Emax is greater than 100% at D3 DAR [1] and 80 to 100% on D3 DAR [2].

For the molecule `Cc1[nH]c(C)c(S(=O)(=O)Nc2ccc(C(C)C)cc2)c1C(=O)N1CCCC1` [compound 4], at D2 DAR, the “D2 DAR Imax” value is on record as “NA (“NA” indicates not active)” and the IC50 is greater than 100 µM. For the same molecule, on D3 DAR [1], the Emax is greater than 100% and the 50% inhibitory concentration (IC50) is 1 to 10 µM. Further, at D3 DAR [2], the IC50 is 10 to 50 µM and the Emax is 80 to 100%.

Consider `CCN(C)C(=O)c1c(C)[nH]c(C)c1S(=O)(=O)Nc1ccc(C(F)(F)F)c(Cl)c1` [compound 29], for which, on D2 DAR, the “D2 DAR Imax” value is “NA (“NA” indicates not active)” and the IC50 is greater than 100 µM. At D3 DAR [1], the Emax was greater than 100% and the half-maximal inhibitory concentration (IC50) was in the range of 10 to 50 µM. In addition, at D3 DAR [2], the IC50 was 10 to 50 µM and the Emax fell in the range of 80 to 100%.

Turning to `Cc1[nH]c(C)c(S(=O)(=O)Nc2ccc(F)cc2)c1C(=O)N1CCCC1` [compound 32], at D2 DAR, the “D2 DAR Imax” value is given as “NA (“NA” indicates not active)” and the IC50 is greater than 100 µM. Also, at D3 DAR [1], the Emax is greater than 100% and the IC50 was 1 to 10 µM. Further, at D3 DAR [2], the IC50 is greater than 100 µM and the “D3 DAR Imax” value was “Curve Incomplete”.
